Patent publication US20260315467A1, “PHARMACEUTICAL COMBINATION OF FAK INHIBITOR AND EGFR-TKI, AND USE” (INXMED (NANJING) CO., LTD., priority 2022, published 2026)

Columns and labels:
lung cancer KPL cells = assay: White light microscope observation of lung cancer KPL cells after 48 h drug incubation (Examples 1-3); format: cell-based
lung cancer cells HCC827 = assay: Apoptosis of HCC827 cells after FAK silencing combined with AZD9291 (Annexin V, flow cytometer); format: cell-based; conditions: FAK siRNA 50 nM, then 0.3 nM AZD9291, 48 hours
Protocol: In an in vitro assay, siRNA technology was used to reduce the expression level of FAK, which was combined with AZD9291 for 48 hours; a flow cytometer was used to detect the apoptosis in control and FAK-silenced cells.
(§1) Assay antibodies: Recombinant Alexa Fluor® 647 Anti-Calreticulin antibody (Abcam, ab196159), Annexin V apoptosis detection kit (Invitrogen, A35110).
HCC827 cells were transfected with control siRNA or FAK siRNA at a final concentration of 50 nM, respectively. After 24 hours of transfection, 0.3 nM AZD9291 was added and the cells were treated for 48 hours. The cells were stained using the Annexin V kit and detected using a flow cytometer. The values of early and late apoptosis of the cells were compared with those of the DMSO control group, and Graphpad 8.0 was used for graphing.

Calreticulin = Calreticulin release and exposure in HCC827 cells after FAK silencing combined with AZD9291; format: cell-based; conditions: FAK siRNA 50 nM, then 0.3 nM AZD9291, 48 hours
Protocol: In an in vitro assay, siRNA technology was used to reduce the expression level of FAK, which was combined with AZD9291 for 48 hours; a flow cytometer was used to detect the expression of Calreticulin, the main target of ICD.
as §1
HCC827 cells were transfected with control siRNA or FAK siRNA at a final concentration of 50 nM, respectively. After 24 hours of transfection, 0.3 nM AZD9291 was added and the cells were treated for 48 hours. The Calreticulin antibody was used for fluorescent staining, and the staining results were analyzed by a flow cytometer.

colon cancer MC38 cell = assay: In vivo anti-tumor efficacy in subcutaneous allograft tumor model of colon cancer MC38 cell in C57BL/6 mice; design: species or system mouse; conditions: PD-L1 antibody 5 mg/kg i.p. BIW
Text: Mice: Female C57BL/6 mice aged 6-8 weeks were purchased from Shanghai Slack Laboratory Animal Co., Ltd. After the animals arrived, they were raised for acclimatization in the assay environment before the assay. The animals were raised in cages (5 animals per cage) with IVC (independent air supply system) in a SPF animal room. All the cages, padding and drinking water were sterilized before use. All the experimenters wore protective clothing and latex gloves when operating in the animal room. The animal information card for each cage indicated the number, sex, strain, receiving date, administration plan, assay number, group and assay start date of the animals in the cage. […]
Colorectal cancer cells MC38 (from Nanjing Kebai Biotechnology Co., Ltd., article number: CBP60825) were maintained and passaged by InxMed (Nanjing) Co., Ltd. The cells were cultured in monolayer in vitro, and the culture conditions were DMEM medium with 10% fetal bovine serum, 37° C. and 5% CO2 incubator. […] When the cells were in exponential growth period and the saturation reached 80% to 90%, the cells were collected, counted and inoculated. […]
The diameter of a tumor was measured with a vernier caliper 3 times a week. […]
Referring to the tumor volume on the first day after grouping, the tumor growth inhibition rate TGI (%) was calculated according to the following formula. […]

[1] = Example 2, IN10018 10 μM, Almonertinib 4.7 μM, or both
[2] = Example 1, IN10018 10 μM, AZD9291 10 μM, or both
[3] = Example 3, IN10018 10 μM, Alflutinib 4.7 μM, or both

## C=CC(=O)Nc1cc(Nc2nccc(-c3cn(C4CC4)c4ccccc34)n2)c(OC)cc1N(C)CCN(C)C [Almonertinib]
Lung cancer KPL cells; [1]
  condition of cells under microscope: poor condition

## C=CC(=O)Nc1cc(Nc2nccc(-c3cn(C)c4ccccc34)n2)c(OC)cc1N(C)CCN(C)C [AZD9291, Osimertinib]
Lung cancer KPL cells; [2]
  condition of cells under microscope: poor condition
Lung cancer cells HCC827
  late apoptosis in the FAK silencing group compared with the control group: significantly enhanced
Calreticulin
  release and exposure of Calreticulin after FAK silencing: significantly enhanced
Colon cancer MC38 cell; day 14, AZD9291 20, IN10018 25 mg/kg p.o. QD
  TGI: 24.4%
Colon cancer MC38 cell; day 14 after group administration, AZD9291 20, IN10018 25 mg/kg p.o. QD, mean ± standard error of the mean
  Tumor volume on day 14: 1518.1±728.8 mm^3

## COc1cc(C(=O)NC2CCN(C)CC2)c(F)cc1Nc1ncc(C(F)(F)F)c(Oc2cccc3c2C(=O)N(C)C3)n1 [IN10018]
Lung cancer KPL cells; [2]
  condition of cells under microscope: better condition
Lung cancer KPL cells; [1]
  condition of cells under microscope: better condition
Lung cancer KPL cells; [3]
  condition of cells under microscope: better condition

## C=CC(=O)Nc1cc(Nc2nccc(-c3cn(C)c4ccccc34)n2)c(OCC(F)(F)F)nc1N(C)CCN(C)C [Alflutinib]
Lung cancer KPL cells; [3]
  condition of cells under microscope: poor condition
